This is an account of results in US8283358B2, “N-sulfonamido polycyclic pyrazolyl compounds” (Elan Pharmaceuticals, Inc., priority 2008, dated 2012).

pIC50: −log10 of the molar value.

The first assay concerns the target T1, gamma-secretase (partially purified extract of IMR-32 cell membranes; substrate MBP-C125 Swe fusion protein, cleavage at the Aβ40 site) (Homo sapiens, UniProt P49768).
T1 construct: a partially purified extract of IMR-32 cell membranes as the gamma-secretase enzyme preparation; endogenous in cells; host or cells: IMR-32 cell membranes, partially purified extract
In words: Gamma-secretase APP enzyme assay (Example A). Format: biochemical. The note with it: class symbols; assay described in Example A; read-out: γAPP IC50. The method in brief:
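IMR-32 membrane extract, solubilised in BigCHAPS with brain lipid (0.53 mg/ml) in Hepes/NaCl, preincubated 30 min at 37° C with inhibitor; MBP-C125 Swe substrate then added, 2 h at 37° C, SDS-quenched. Aβ40 neo-epitope product measured by sandwich ELISA against six-point standard curve.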
A word on the pIC50: it is −log10 of the IC50, conventionally taken in molar units. Turning to `O=S(=O)(c1ccc(C(F)(F)F)nc1)N1C2Cc3n[nH]cc3C1c1nc(-c3ccc(F)cc3)ccc12` (centres unmarked) [compound 254], the negative-log IC50 (pIC50) was 6.30 to 7.00.

`O=S(=O)(c1ccc(C(F)(F)F)nc1)N1C2c3cn[nH]c3[C@@H](O)C1c1cccc(F)c12` (some centres unmarked) [compound 238]: the pIC50 was more than 7.00.

With `Cc1noc(-c2ccc3c(c2)C2c4cn[nH]c4CC3N2S(=O)(=O)c2ccc(C(F)(F)F)nc2)n1` (centres unmarked) [compound 202], the negative logarithm of the IC50 (pIC50) was less than 6.00.

Regarding `O=S(=O)(c1ccc(C(F)(F)F)cc1)N1C2Cc3n[nH]cc3C1CC(c1cccc(Br)c1)C2` (centres unmarked) [compound 125], the pIC50 was more than 7.00.

With `O=C1c2[nH]ncc2C2c3c(F)cccc3C1N2S(=O)(=O)c1ccc(Cl)cc1` (centres unmarked) [compound 243], the negative logarithm of the IC50 (pIC50) is 6.30 to 7.00.

Turning to `Cc1nc(C2CC3Cc4[nH]ncc4C(C2)N3S(=O)(=O)c2ccc(C(F)(F)F)cc2)n[nH]1` (racemic) [compound 85], the pIC50 is less than 6.00.

Regarding `O=S(=O)(c1ccc(C(F)(F)F)nc1)N1C2c3cc(F)c(F)cc3C1C(F)(F)c1[nH]ncc12` (racemic) [compound 157], the pIC50 was more than 7.00.

For the compound `O=S(=O)(c1ccc(C(F)(F)F)nc1)N1C2Cc3[nH]ncc3C1c1c(C3CC3)cccc12` (racemic) [compound 274], the pIC50 was more than 7.00.

Take `Cc1noc(-c2ccc3c(c2)C2c4cn[nH]c4CC3N2S(=O)(=O)c2ccc(C(F)(F)F)nc2)n1` (centres unmarked) [compound 201]: the pIC50 was less than 6.00.

As for `O=S(=O)(c1ccc(C(F)(F)F)nc1)N1C2Cc3n[nH]cc3C1c1nc(Br)ccc12` (single isomer, unassigned) [compound 248], the pIC50 was more than 7.00.

Take `O=S(=O)(c1ccc(C(F)(F)F)cc1)N1C2c3c[nH]nc3C(F)(F)C1c1cccc(F)c12` (centres unmarked) [compound 128]: the pIC50 was more than 7.00.

On to `C=C1c2[nH]ncc2C2c3cccc(Cl)c3C1N2S(=O)(=O)c1ccc(C(F)(F)F)nc1` (centres unmarked) [compound 272], for which the negative logarithm of the IC50 (pIC50) was more than 7.00.

For the compound `O=S(=O)(c1ccc(C(F)(F)F)cc1)N1C2Cc3[nH]ncc3C1c1ccccc12` (centres unmarked) [compound 72], the pIC50 is less than 6.00.

Turning to `O=S(=O)(c1ccc(C(F)(F)F)cc1)N1C2Cc3[nH]ncc3C1c1cc(C(F)(F)F)ccc12` (racemic) [compound 155], the pIC50 was more than 7.00.

Turning to `CC(=O)Nc1ccc(C2CC3Cc4[nH]ncc4C(C2)N3S(=O)(=O)c2ccc(C(F)(F)F)cc2)cc1` (racemic) [compound 152], the pIC50 was more than 7.00.

As to `N#Cc1ccc2c(c1)C1Cc3n[nH]cc3C2N1S(=O)(=O)c1ccc(C(F)(F)F)nc1` (centres unmarked) [compound 167], the negative logarithm of the IC50 (pIC50) is more than 7.00.

Take `O=C1c2[nH]ncc2C2c3ccccc3C1N2S(=O)(=O)c1ccc(C(F)(F)F)cc1` (centres unmarked) [compound 71]: the pIC50 was more than 7.00.

As for `O=S(=O)(c1ccc(C(F)(F)F)cc1)N1C2C=C(C3CC3)C1c1c[nH]nc1C2` (centres unmarked) [compound 44], the negative-log IC50 (pIC50) was more than 7.00.

Turning to `O=S(=O)(c1ccc(C(F)(F)F)nc1)N1C2Cc3n[nH]cc3C1c1nc(Br)ccc12` (single isomer, unassigned) [compound 249], the pIC50 is less than 6.00.

With `Cn1cc(C2CC3Cc4[nH]ncc4C(C2)N3S(=O)(=O)c2ccc(Cl)cc2)nn1` (single isomer, unassigned) [compound 137], the negative-log IC50 (pIC50) is less than 6.00.

Turning to `CO/N=C1\c2[nH]ncc2C2c3cccc(Cl)c3C1N2S(=O)(=O)c1ccc(C(F)(F)F)nc1` (centres unmarked) [compound 269], the pIC50 is more than 7.00.

With `O=S(=O)(c1ccc(C(F)(F)F)nc1)N1C2c3c[nH]nc3[C@H](O)C1c1cccc(F)c12` (some centres unmarked) [compound 237], the pIC50 was less than 6.00.

Turning to `O=S(=O)(c1ccc(C(F)(F)F)cn1)N1C2Cc3[nH]ncc3C1c1c(F)cccc12` (racemic) [compound 211], the pIC50 is more than 7.00.

As for `COC(=O)CCCNc1ccc(C2CC3Cc4n[nH]cc4C(C2)N3S(=O)(=O)c2ccc(C(F)(F)F)cc2)cc1` (centres unmarked) [compound 142], the pIC50 was more than 7.00.

As to `CC12C(=O)c3[nH]ncc3C(c3ccccc31)N2S(=O)(=O)c1ccc(C(F)(F)F)cc1` (centres unmarked) [compound 277], the pIC50 is more than 7.00.

As for `COC(=O)c1cccc2c1C1Cc3[nH]ncc3C2N1S(=O)(=O)c1ccc(C(F)(F)F)nc1` (racemic) [compound 220], the pIC50 is more than 7.00.

As for `O=S(=O)(c1ccc(C(F)(F)F)nc1)N1C2Cc3[nH]ncc3C1c1ccccc12` (centres unmarked) [compound 98], the pIC50 is more than 7.00.

On to `O=C1c2[nH]ncc2C2c3c(F)cccc3C1N2S(=O)(=O)c1ccc(Cl)cc1` (centres unmarked) [compound 242], for which the pIC50 is more than 7.00.

In the case of `O=S(=O)(c1ccc(C(F)(F)F)cc1)N1C2Cc3cccc(F)c3C1c1cn[nH]c1C2` (racemic) [compound 182], the pIC50 was more than 7.00.

With `NC1CCCCC1Nc1ccc(C2CC3Cc4n[nH]cc4C(C2)N3S(=O)(=O)c2ccc(C(F)(F)F)cc2)cc1` (centres unmarked) [compound 117], the negative logarithm of the IC50 (pIC50) is less than 6.00.

Regarding `O=S(=O)(c1ccc(C(F)(F)F)nc1)N1C2Cc3[nH]ncc3C1c1nc(C3CC3)ccc12` (centres unmarked) [compound 255], the pIC50 is 6.30 to 7.00.

As for `O=S(=O)(c1ccc(C(F)(F)F)nc1)N1C2c3c[nH]nc3[C@@H](O)C1c1c(F)cccc12` (some centres unmarked) [compound 216], the pIC50 was 6.30 to 7.00.

`O=S(=O)(c1ccc(C(F)(F)F)nc1)N1C2Cc3n[nH]cc3C1c1cccc(F)c12` (centres unmarked) [compound 183]: the pIC50 is more than 7.00.

As to `O=S(=O)(c1ccc(C(F)(F)F)cc1)N1C2Cc3[nH]ncc3C1c1cc(F)c(F)cc12` (centres unmarked) [compound 95], the negative-log IC50 (pIC50) is more than 7.00.

As for `Cn1cc(C2CC3Cc4[nH]ncc4C(C2)N3S(=O)(=O)c2ccc(Cl)cc2)nn1` (single isomer, unassigned) [compound 138], the pIC50 is 6.00 to 6.30.

`Cc1nc(C2CC3Cc4[nH]ncc4C(C2)N3S(=O)(=O)c2ccc(C(F)(F)F)cc2)n(C)n1` (racemic) [compound 80]: the negative logarithm of the IC50 (pIC50) was 6.00 to 6.30.

Regarding `COC(=O)c1ccc2c(c1)C1c3cn[nH]c3CC2N1S(=O)(=O)c1ccc(C(F)(F)F)nc1` (centres unmarked) [compound 203], the pIC50 was less than 6.00.

For `O=S(=O)(c1ccc(C(F)(F)F)cc1)N1C2Cc3ccccc3C1c1cn[nH]c1C2` (racemic) [compound 164], the pIC50 was more than 7.00.

With `O=S(=O)(c1ccc(C(F)(F)F)cc1)N1C2Cc3[nH]ncc3C1c1ncccc12` (single isomer, unassigned) [compound 102], the pIC50 is 6.00 to 6.30.

For the compound `Cc1noc(-c2cccc3c2C2Cc4[nH]ncc4C3N2S(=O)(=O)c2ccc(C(F)(F)F)nc2)n1` (centres unmarked) [compound 234], the negative logarithm of the IC50 (pIC50) is more than 7.00.

Consider `O=S(=O)(c1ccc(C(F)(F)F)cc1)N1C2c3cn[nH]c3C(F)C1c1cccc(F)c12` (single isomer, unassigned) [compound 262], for which the pIC50 was less than 6.00.

On to `O=S(=O)(c1ccc(C(F)(F)F)nc1)N1C2Cc3[nH]ncc3C1c1cc(Br)ccc12` (centres unmarked) [compound 251], for which the pIC50 was 6.30 to 7.00.

For the compound `O=S(=O)(c1ccc(C(F)(F)F)nc1)N1C2Cc3[nH]ncc3C1c1cc(Cl)ccc12` (racemic) [compound 219], the negative logarithm of the IC50 (pIC50) was more than 7.00.

Take `Cc1cc(C2CC3Cc4[nH]ncc4C(C2)N3S(=O)(=O)c2ccc(Cl)cc2)on1` (racemic) [compound 76]: the pIC50 was more than 7.00.

Staying with this assay, now noted: numeric bounds given instead of class symbols; assay described in Example A; read-out: γAPP IC50.
Consider `Cc1cc(F)cc2c1C1c3c[nH]nc3CC2N1S(=O)(=O)c1ccc(C(F)(F)F)nc1` (centres unmarked) [compound 158], for which the pIC50 is less than 8.00.

Regarding `Cn1ncc(C2CC3Cc4[nH]ncc4C(C2)N3S(=O)(=O)c2ccc(Cl)cc2)n1` (centres unmarked) [compound 139], the pIC50 is less than 6.52.

With `O=S(=O)(c1ccc(C(F)(F)F)nc1)N1C2Cc3[nH]ncc3C1c1ccccc12` (centres unmarked) [compound 196], the pIC50 is less than 7.52.

Consider `O=c1oc2cc3c(cc2o1)C1c2cn[nH]c2CC3N1S(=O)(=O)c1ccc(C(F)(F)F)cc1` (racemic) [compound 109], for which the pIC50 was less than 7.00.

Still in this assay, the particulars now being: γAPP IC50 (nM), class symbols; assay described in Example A.
As usually defined, the IC50 is the concentration at which inhibition is half-maximal. Low readings indicate greater potency, high ones weaker potency. For the compound `O=S(=O)(c1ccc(C(F)(F)F)cc1)N1C2Cc3n[nH]cc3C1c1c(F)cccc12` (single isomer, unassigned) [compound 115], the IC50 is less than 100 nM.

Staying with this assay, now noted: γAPP IC50 (nM), numeric bounds given instead of class symbols; assay described in Example A.
In turn, `O=S(=O)(c1ccc(C(F)(F)F)nc1)N1C2Cc3n[nH]cc3C1c1c(F)cccc12` (centres unmarked) [compound 129] had an IC50 of more than 10 nM.

For a further assay, the system named is gamma secretase in CHO cells expressing APPSwe, NotchΔE and a Notch responsive luciferase reporter gene (SNC-204B8). In words: SNC dual cell assay for simultaneous assay of A-beta reduction and Notch signaling (Example D). The following applies: ratio of Notch IC50/Aβ EC50 determined as described in Example D (SNC dual cell assay).
From the text: In order to facilitate testing the potency of gamma-secretase inhibitors on two substrates (APP and Notch) simultaneously, a dual-assay using a CHO cell line stably expressing APPSwe, a Notch substrate lacking the ecto-domain, and a Notch responsive Luciferase reporter gene was developed. CHOSwe cells stably over-express the Swedish FAD isoform of APP, and secrete large amounts of Aβ peptide into the conditioned media from endogenous β- and γ-secretase enzyme activity. A Notch intracellular domain (NICD) responsive reporter gene, and the constitutive gamma-secretase Notch substrate, NotchΔE, were stably introduced into CHOSwe cells in a two step process. CHOSwe cells were first stably transfected to express a NICD responsive luciferase reporter gene construct (pGL2-CBF-Luc). […] Stable cell lines expressing rat NotchΔE were then identified in the second step by including a gamma-secretase inhibitor in the selection process (to suppress Notch/NICD toxicity) following transfection of the rat Notch-ΔE construct. […] This vector drives expression of a truncated rat Notch construct corresponding to the c-terminal product following ecto-domain shedding of full length rat Notch protein. The c-terminal product is a constitutive substrate for gamma-secretase cleavage, resulting in release of the cytoplasmic Notch intracellular domain (NICD) product, which translocates to the nucleus and relieves CBF repressed genes. Subsequently, pIRES-ZEDN transfected cells were re-plated at low density in the presence of test compound, and selected with three antibiotics (G418 (0.5 mg/ml)/Hygro (1 mg/ml)/Puro (2.5 mg/ml)). The antibiotic-resistant colonies (named SNC clones for the dual-assay components: APPSwe/NotchΔE/CBF) were isolated and expanded for characterization of Aβ secretion, and NICD responsive reporter gene activity (i.e. luciferase signal in the presence versus absence of test compound). […] A typical dual-assay experiment was performed as follows: Day 1, the SNC cells were plated in 96-well assay plates in inhibitor-free media. Day 2, the cells were fed with fresh media (inhibitor free) and treated with test compounds over a concentration range 0 nM to 40,000 nM (in 10× incremental dilutions) one hour after the media change. The cells were treated with compounds overnight at 37° C. […] For the Notch signaling assay, the cells were lysed and luciferase activity from the lysate was measured using the Promega kit (see below). Day 4, Aβ-ELISA part II was conducted using 3D6-biotin/AP-streptavidin antibodies.
Take `O=S(=O)(c1ccc(C(F)(F)F)cc1)N1C2Cc3[nH]ncc3C1CC(c1csnn1)C2` (racemic) [(±)-6-(1,2,3-thiadiazol-4-yl)-10-{[4-(trifluoromethyl)phenyl]sulfonyl}-4,5,6,7,8,9-hexahydro-1H-4,8-epiminocycloocta[c]pyrazole]: the “Selectivity Ratio (Notch IC50/Aβ ED50)” value is given as “(^++)”.

Turning to `O=S(=O)(c1ccc(C(F)(F)F)nc1)N1C2Cc3[nH]ncc3C1c1cc(Br)ccc12` (single isomer, unassigned; (-)) [(−)-6-bromo-11-{[6-(trifluoromethyl)pyridin-3-yl]sulfonyl}-1,4,9,10-tetrahydro-4,9-epiminobenzo[4,5]cyclohepta[1,2-c]pyrazole], the “Selectivity Ratio (Notch IC50/Aβ ED50)” value is listed as “(+) ((+) means a ratio from about 50 to about 99)”.

For `O=S(=O)(c1ccc(C(F)(F)F)cc1)N1C2Cc3[nH]ncc3C1CC(c1cccc(-n3cccn3)c1)C2` (racemic) [(±)-6-[3-(1H-pyrazol-1-yl)phenyl]-10-{[4-(trifluoromethyl)phenyl]sulfonyl}-4,5,6,7,8,9-hexahydro-1H-4,8-epiminocycloocta[c]pyrazole], the “Selectivity Ratio (Notch IC50/Aβ ED50)” value was “(+) ((+) means a ratio from about 50 to about 99)”.
